Laboratory results from publication PMC9589054, “One-step synthesized antimicrobial peptide-functionalized gold nanoclusters for selective imaging and killing of pathogenic bacteria” (Frontiers in Microbiology, 2022).
Ends that are not written are not given here.

How the values were obtained:
Assay in all cases: Plate bactericidal experiment (colony counting)
Format in all cases: cell-based
Details in all cases: 22-712 μg/ml tested
[1] = test system: Acinetobacter baumannii (A. baumannii) ATCC 19606
[2] = test system: Staphylococcus aureus (S. aureus) ATCC 25923
Method: (§1) The Escherichia coli (E. coli) ATCC 25922, Staphylococcus aureus (S. aureus) ATCC 25923, and Acinetobacter baumannii (A. baumannii) ATCC 19606 used in our experiments were preserved in our laboratory. Bacteria were cultured in LB liquid medium at 37°C for 8–12 h. Then, the cultures were centrifuged at 4,000 rpm for 5 min and washed three times with PBS. Eventually, the bacterial solutions were diluted to different concentrations for testing (10–1.00 × 10^9 cfu/ml). First, 100 μl of CWR11-AuNC solution was added to an E. coli or S. aureus suspension (1 × 10^5 cfu/ml). After 1 h of incubation, 10 μl of bacterial suspension was inoculated on an LB solid agar plate and placed at 37°C for 24 h before the number of colonies was counted. In addition, different concentrations of CWR11-AuNCs were added to the bacterial suspensions (McFarland turbidity of 0.5) and placed at 37°C for 18–24 h. Bacterial viability was determined by measuring the absorbance at 600 nm.

[3] = test system: Escherichia coli (E. coli) ATCC 25922
Method: as §1

CWFWKWWRRRRR [CWR11]
significantly reduced the activity: effect on activity of A. baumannii [1] | effect on activity of S. aureus [2] | effect on activity of E. coli [3]
